From patent US20160046618A1, “Cyclopropyl Fused Thiazin-2-Amine Compounds as Beta-Secretase Inhibitors and Methods of Use” (AMGEN INC., priority 2014, published 2016)

Columns and labels:
human recombinant BACE1 = human recombinant BACE1 (Homo sapiens (Human), UniProt P56817); test: In vitro enzymatic BACE1 FRET assay; format: biochemical; details: read-out: IC50 IP (μM) BACE1 enzyme
In short: (§1)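 Tris addition raises the pH to neutral to stop the reaction before fluorescence is measured at 590 nm emission with 488 nm excitation.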

[1] = tested on: Aβ40 in conditioned medium of cells stably expressing Amyloid Precursor Protein (APP); test: In vitro BACE-1 cell-based assay (Aβ40 sandwich ELISA); details: read-out: IC50 IP (μM) BACE1 cell
In short: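 Read-out: time-resolved fluorescence (Streptavidin-Europium) of Aβ40 captured by pAb40 and detected with biotinylated 6E10 from supernatants of APP-stable cells. Cells were exposed to compound for 24 h, 10-point dose response, top dose 100 μM or 10 μM, 0.1% DMSO. IC50 fitted to percent of control.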

Recombinant Cat D = Recombinant Cat D (Homo sapiens (Human), UniProt P07339); test: In vitro enzymatic Cathepsin D (Cat D) FRET assay; format: biochemical; details: read-out: IC50 IP (μM) CatD
Recombinant Cat D, sequence (P07339 65-412): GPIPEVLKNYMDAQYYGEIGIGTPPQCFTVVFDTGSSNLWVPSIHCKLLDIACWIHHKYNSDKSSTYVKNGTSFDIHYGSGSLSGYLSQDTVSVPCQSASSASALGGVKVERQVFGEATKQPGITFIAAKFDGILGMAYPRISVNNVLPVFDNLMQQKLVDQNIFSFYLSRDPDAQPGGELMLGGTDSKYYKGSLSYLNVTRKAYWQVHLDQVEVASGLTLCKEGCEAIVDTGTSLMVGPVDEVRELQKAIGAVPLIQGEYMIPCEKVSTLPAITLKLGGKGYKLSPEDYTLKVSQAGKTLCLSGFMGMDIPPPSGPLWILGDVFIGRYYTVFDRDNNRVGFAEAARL
In short: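 CHO-expressed enzyme; buffer 0.05 M citrate pH 3.5, 5 mM CHAPS, 10% DMSO final. Start with FRET substrate 20 nM, 1 h incubation, Tris stop (pH to neutral), fluorescence ex 500 nm/em 580 nm.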

human recombinant BACE2 = human recombinant BACE2 (Homo sapiens (Human), UniProt Q9Y5Z0); test: In vitro enzymatic BACE2 FRET assay; format: biochemical; details: read-out: IC50 IP (μM) BACE2 enzyme
human recombinant BACE2, sequence (Q9Y5Z0 63-518): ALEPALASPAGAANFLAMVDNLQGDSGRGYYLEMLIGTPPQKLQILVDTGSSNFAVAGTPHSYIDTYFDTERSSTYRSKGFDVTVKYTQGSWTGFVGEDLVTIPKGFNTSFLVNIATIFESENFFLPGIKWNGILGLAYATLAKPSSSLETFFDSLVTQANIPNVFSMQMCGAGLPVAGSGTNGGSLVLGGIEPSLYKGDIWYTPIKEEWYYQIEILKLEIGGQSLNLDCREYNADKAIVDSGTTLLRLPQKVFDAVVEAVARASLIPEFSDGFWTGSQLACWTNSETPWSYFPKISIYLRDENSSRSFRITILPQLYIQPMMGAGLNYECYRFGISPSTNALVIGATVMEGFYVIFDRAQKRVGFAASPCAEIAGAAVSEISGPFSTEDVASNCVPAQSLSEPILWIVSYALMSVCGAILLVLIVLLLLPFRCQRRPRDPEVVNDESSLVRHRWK
In short: as §1

human recombinant BACE1, sequence (P56817 46-501): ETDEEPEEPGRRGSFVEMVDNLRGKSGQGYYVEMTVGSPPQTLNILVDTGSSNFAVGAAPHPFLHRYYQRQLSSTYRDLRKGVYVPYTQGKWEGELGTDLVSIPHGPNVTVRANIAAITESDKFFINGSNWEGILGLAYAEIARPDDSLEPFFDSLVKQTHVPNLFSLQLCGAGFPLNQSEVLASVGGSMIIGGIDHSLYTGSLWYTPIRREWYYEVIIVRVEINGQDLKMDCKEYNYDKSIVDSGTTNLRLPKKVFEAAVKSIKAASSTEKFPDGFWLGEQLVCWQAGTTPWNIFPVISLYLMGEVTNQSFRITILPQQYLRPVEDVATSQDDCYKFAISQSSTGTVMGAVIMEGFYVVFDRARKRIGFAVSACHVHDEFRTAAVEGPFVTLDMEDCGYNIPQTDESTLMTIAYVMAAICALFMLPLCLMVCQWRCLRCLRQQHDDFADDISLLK

In the case of COC[C@]12C[C@H]1[C@@](C)(c1cc(NC(=O)c3cnc(OCc4noc(C)n4)cn3)cc(F)c1F)N=C(N)S2 [Example 1013, N-(3-((1S,5S,6S)-3-amino-1-(methoxymethyl)-5-methyl-2-thia-4-azabicyclo[4.1.0]hept-3-en-5-yl)-4,5-difluorophenyl)-5-((5-methyl-1,2,4-oxadiazol-3-yl)methoxy)-2-pyrazinecarboxamide], the IC50 (human recombinant BACE1) is reported as 0.00139 µM, the IC50 [1] is reported as 0.00144 µM and the IC50 (Recombinant Cat D) is reported as 959 µM. For the same molecule, the IC50 (human recombinant BACE2) was 0.0541 µM.
Molecule COC[C@]12C[C@H]1[C@@](C)(c1cc(NC(=O)c3cnc(OCc4nc(C)no4)cn3)cc(F)c1F)N=C(N)S2 [Example 1014, N-(3-((1S,5S,6S)-3-amino-1-(methoxymethyl)-5-methyl-2-thia-4-azabicyclo[4.1.0]hept-3-en-5-yl)-4,5-difluorophenyl)-5-((3-methyl-1,2,4-oxadiazol-5-yl)methoxy)-2-pyrazinecarboxamide] has an IC50 (human recombinant BACE1) of 0.000879 µM, an IC50 [1] of 0.00289 µM and an IC50 (Recombinant Cat D) of 2560 µM. It also gave an IC50 (human recombinant BACE2) of 0.192 µM.
Cc1cc(OCC(F)(F)F)cnc1C(=O)Nc1cc(F)c(F)c([C@@]2(C)N=C(N)S[C@@]3(C#N)C[C@H]32)c1 [Example 1015, N-(3-((1S,5S,6S)-3-amino-1-cyano-5-methyl-2-thia-4-azabicyclo[4.1.0]hept-3-en-5-yl)-4,5-difluorophenyl)-3-methyl-5-(2,2,2-trifluoroethoxy)-2-pyridinecarboxamide] was tested, and the IC50 (human recombinant BACE1) was 0.00497 µM, the IC50 [1] was 0.00686 µM and the IC50 (Recombinant Cat D) was greater than 400 µM. For the same molecule, the IC50 (human recombinant BACE2) was 0.185 µM.
C#CCOc1cnc(C(=O)Nc2cc(F)c(F)c([C@@]3(C)N=C(N)S[C@@]4(C#N)C[C@H]43)c2)c(C)c1 [Example 1016, N-(3-((1S,5S,6S)-3-amino-1-cyano-5-methyl-2-thia-4-azabicyclo[4.1.0]hept-3-en-5-yl)-4,5-difluorophenyl)-3-methyl-5-(2-propyn-1-yloxy)-2-pyridinecarboxamide] showed an IC50 (human recombinant BACE1) of 0.00104 µM, an IC50 [1] of 0.0119 µM and an IC50 (Recombinant Cat D) greater than 400 µM. For the same molecule, the IC50 (human recombinant BACE2) was 0.00764 µM.
In the case of C#CCOc1cnc(C(=O)Nc2ccc(F)c([C@@]3(C)N=C(N)S[C@@]4(C(=O)NCC)C[C@H]43)c2)cn1 [Example 1017, (1S,5S,6S)-3-amino-N-ethyl-5-(2-fluoro-5-(5-(prop-2-yn-1-yloxy)pyrazine-2-carboxamido)phenyl)-5-methyl-2-thia-4-azabicyclo[4.1.0]hept-3-ene-1-carboxamide], the IC50 (human recombinant BACE1) is reported as 0.000266 µM, the IC50 [1] is reported as 0.000106 µM and the IC50 (Recombinant Cat D) is reported as 22.5 µM. The IC50 (human recombinant BACE2) was 0.00982 µM.
CC(C)(CF)NC(=O)[C@]12C[C@H]1[C@@](C)(c1cc(NC(=O)c3ccc(C#N)cn3)ccc1F)N=C(N)S2 [Example 1018, (1S,5S,6S)-3-amino-5-(5-(5-cyanopicolinamido)-2-fluorophenyl)-N-(1-fluoro-2-methylpropan-2-yl)-5-methyl-2-thia-4-azabicyclo[4.1.0]hept-3-ene-1-carboxamide] was tested, and the IC50 (human recombinant BACE1) was 0.00116 µM, the IC50 [1] was 0.00113 µM and the IC50 (Recombinant Cat D) was 211 µM. It also gave an IC50 (human recombinant BACE2) of 0.00651 µM.
C#C[C@H](C)Oc1cnc(C(=O)Nc2ccc(F)c([C@@]3(C)N=C(N)S[C@@]4(C(=O)NC(C)(C)CF)C[C@H]43)c2)cn1 [Example 1019, (1S,5S,6S)-3-amino-5-(5-(5-((S)-but-3-yn-2-yloxy)pyrazine-2-carboxamido)-2-fluorophenyl)-N-(1-fluoro-2-methylpropan-2-yl)-5-methyl-2-thia-4-azabicyclo[4.1.0]hept-3-ene-1-carboxamide] showed an IC50 (human recombinant BACE1) of 0.000937 µM, an IC50 [1] of 0.00109 µM and an IC50 (Recombinant Cat D) of 271 µM. It also gave an IC50 (human recombinant BACE2) of 0.073 µM.
Work on COC[C@]12C[C@H]1[C@@](C)(c1cc(NC(=O)c3cnc(OCC4CCC4)cn3)cc(F)c1F)N=C(N)S2 [Example 1020, N-(3-((1S,5S,6S)-3-amino-1-(methoxymethyl)-5-methyl-2-thia-4-azabicyclo[4.1.0]hept-3-en-5-yl)-4,5-difluorophenyl)-5-(cyclobutylmethoxy)pyrazine-2-carboxamide] yielded an IC50 (human recombinant BACE1) of 0.00118 µM, an IC50 [1] of 0.0248 µM and an IC50 (Recombinant Cat D) of 783 µM. The IC50 (human recombinant BACE2) was 0.0998 µM.
For COC[C@]12C[C@H]1[C@@](C)(c1cc(NC(=O)c3cnc(OCC4COC4)cn3)cc(F)c1F)N=C(N)S2 [Example 1022, N-(3-((1S,5S,6S)-3-amino-1-(methoxymethyl)-5-methyl-2-thia-4-azabicyclo[4.1.0]hept-3-en-5-yl)-4,5-difluorophenyl)-5-(3-oxetanylmethoxy)-2-pyrazinecarboxamide], the IC50 (human recombinant BACE1) was 0.00572 µM, the IC50 [1] was 0.0331 µM and the IC50 (Recombinant Cat D) was greater than 400 µM. It also gave an IC50 (human recombinant BACE2) of 0.579 µM.
COC[C@]12C[C@H]1[C@@](C)(c1cc(NC(=O)c3cnc(OCC(C)OC)cn3)cc(F)c1F)N=C(N)S2 (stereo partly drawn) [Example 1023, N-(3-((1S,5S,6S)-3-amino-1-(methoxymethyl)-5-methyl-2-thia-4-azabicyclo[4.1.0]hept-3-en-5-yl)-4,5-difluorophenyl)-5-(2-methoxypropoxy)pyrazine-2-carboxamide] showed an IC50 (human recombinant BACE1) of 0.00319 µM, an IC50 [1] of 0.0135 µM and an IC50 (Recombinant Cat D) of 1360 µM. For the same molecule, the IC50 (human recombinant BACE2) was 0.204 µM.
COC[C@H](C)Oc1cnc(C(=O)Nc2cc(F)c(F)c([C@@]3(C)N=C(N)S[C@@]4(COC)C[C@H]43)c2)cn1 [Example 1024, N-(3-((1S,5S,6S)-3-amino-1-(methoxymethyl)-5-methyl-2-thia-4-azabicyclo[4.1.0]hept-3-en-5-yl)-4,5-difluorophenyl)-5-((1S)-2-methoxy-1-methylethoxy)-2-pyrazinecarboxamide] showed an IC50 (human recombinant BACE1) of 0.00214 µM, an IC50 [1] of 0.0222 µM and an IC50 (Recombinant Cat D) of 884 µM. It also gave an IC50 (human recombinant BACE2) of 0.313 µM.
COC[C@]12C[C@H]1[C@@](C)(c1cc(NC(=O)c3cnc(OCC(F)F)cn3)cc(F)c1F)N=C(N)S2 [Example 1025, N-(3-((1S,5S,6S)-3-amino-1-(methoxymethyl)-5-methyl-2-thia-4-azabicyclo[4.1.0]hept-3-en-5-yl)-4,5-difluorophenyl)-5-(2,2-difluoroethoxy)-2-pyrazinecarboxamide] showed an IC50 (human recombinant BACE1) of 0.00169 µM, an IC50 [1] of 0.0142 µM and an IC50 (Recombinant Cat D) of 1700 µM. It also gave an IC50 (human recombinant BACE2) of 0.13 µM.
COC[C@]12C[C@H]1[C@@](C)(c1cc(NC(=O)c3cnc(OCC4CC(F)(F)C4)cn3)cc(F)c1F)N=C(N)S2 [Example 1026, N-(3-((1S,5S,6S)-3-amino-1-(methoxymethyl)-5-methyl-2-thia-4-azabicyclo[4.1.0]hept-3-en-5-yl)-4,5-difluorophenyl)-5-((3,3-difluorocyclobutyl)methoxy)-2-pyrazinecarboxamide] was tested, and the IC50 (human recombinant BACE1) was 0.00496 µM, the IC50 [1] was 0.0936 µM and the IC50 (Recombinant Cat D) was 475 µM. It also gave an IC50 (human recombinant BACE2) of 0.115 µM.
With COC[C@]12C[C@H]1[C@@](C)(c1cc(NC(=O)c3c[nH]c(=O)cn3)cc(F)c1F)N=C(N)S2 [Example 1027, N-(3-((1S,5S,6S)-3-amino-1-(methoxymethyl)-5-methyl-2-thia-4-azabicyclo[4.1.0]hept-3-en-5-yl)-4,5-difluorophenyl)-5-oxo-4,5-dihydro-2-pyrazinecarboxamide] the IC50 (human recombinant BACE1) was 0.0196 µM, the IC50 [1] was 0.136 µM and the IC50 (Recombinant Cat D) was 981 µM. It also gave an IC50 (human recombinant BACE2) of 0.0565 µM.
For COC[C@]12C[C@H]1[C@@](C)(c1cc(NC(=O)c3cnc(OCC(C)C)cn3)cc(F)c1F)N=C(N)S2 [Example 1028, N-(3-((1S,5S,6S)-3-amino-1-(methoxymethyl)-5-methyl-2-thia-4-azabicyclo[4.1.0]hept-3-en-5-yl)-4,5-difluorophenyl)-5-(2-methylpropoxy)-2-pyrazinecarboxamide], the IC50 (human recombinant BACE1) was 0.00195 µM, the IC50 [1] was 0.0293 µM and the IC50 (Recombinant Cat D) was 135 µM. The IC50 (human recombinant BACE2) was 0.226 µM.
